Experiments:
[1] = system: dopamine receptors; experiment: Test 2 Inhibition of Apomorphine Induced Climbing; assay type: in vivo, mice; conditions: Table I; for ED50, inhibition of apomorphine induced climbing: mice, compound one hour before 10 mg/kg apomorphine, dose reducing climbing score by 50%
[2] = Test 4 Increase in Halothane Induced Sleep Time (sedative potential); assay type: in vivo, mice; conditions: for ED50, increase in halothane induced sleep time: mice, one hour before 3% halothane, dose increasing duration of loss of righting reflex by 50%
Protocol: Test 4 Increase in Halothane Induced Sleep Time
Groups of 6 mice received the test compounds or the requisite volume of vehicle p.o. one hour before being placed in a perspex container. A gas mixture containing 3% halothane in oxygen was passed through this container for 5 minutes. Next the mice were removed and placed on their backs and the latency to the restoration of the righting reflex noted.
The doses shown are those calculated to increase the duration of halothane induced loss of righting reflex by 50%.

[3] = system: dopamine receptors; experiment: Test 1 Inhibition of Amphetamine Induced Stereotypy; assay type: in vivo, rats; conditions: for ED50, inhibition of amphetamine induced stereotypy: rats
Text: Test 1 Inhibition of Amphetamine Induced Stereotypy

[4] = Test 5 Increase in Fall Rate From Revolving Drum (ability to induce extrapyramidal effects); assay type: in vivo, mice; conditions: for TD50 at 1 h: mouse, in vivo, po, mice, one hour after dosing, dose inducing fall rate half of maximum theoretically possible, read-out: ED50, increase in fall rate from revolving drum
Protocol: Test 5 Increase in Fall Rate From Revolving Drum
Groups of 8 mice were trained to walk on a slowly revolving horizontal drum prior to dosing with various concentrations of the test drugs or vehicle. An hour later the mice were replaced on the drum and the number of times each animal fell during the following 3 minutes was noted (mice were replaced immediately after each fall). […] The doses shown are those calculated to induce a fall rate half that of the maximum theoretically possible.

[5] = system: dopamine receptors; experiment: Test 3 Inhibition of p-chloroamphetamine hyperactivity; assay type: in vivo, mice; conditions: for ED50, inhibition of pCA induced hyperactivity: Table 2, mice
Protocol: Test 3 Inhibition of p-chloroamphetamine hyperactivity
C=mean activity of control groups 10-30 minutes post pCA.
T=mean activity of treated groups 10-30 minutes post pCA.
This test is used as an in vivo screen for detection of 5-hydroxytryptamineuptake inhibitors.

[6] = system: dopamine receptors; experiment: Dopamine antagonism, overall statement on Tests 1, 2 and 3; conditions: for antagonist activity at dopaminergic reception (in words): results of Table 2, Tests 1 and 3, 50 mg/kg for Examples 6 and 7
[7] = Table I, compound one hour before 5 mg/kg d-amphetamine

SMILES | ED50, inhibition of apomorphine induced climbing [1] [mg/kg p.o.] | ED50, increase in halothane induced sleep time ([2]; Table I) [mg/kg p.o.] | ED50, inhibition of amphetamine induced stereotypy [3, 7] [mg/kg p.o.] | TD50 at 1 h ([4]; Table I) [mg/kg] | ED50, inhibition of amphetamine induced stereotypy ([3]; Table 2, 5 mg/kg d-amphetamine) [mg/kg p.o.] | antagonist activity at dopaminergic reception (in words) [6] | ED50, inhibition of pCA induced hyperactivity ([5]; 20 mg/kg pCA ip) [mg/kg p.o.] | also measured
O=C(CCCN1CCC(O)(c2ccc(Cl)cc2)CC1)c1ccc(F)cc1 [Haloperidol, haloperidol, reference compound] | 0.5 | 0.2 | 0.7 | 0.9 | – | – | – | dose prolonging halothane-induced sleep compared with doses inhibiting dopaminergic responses (in words) ([2]; Test 4 versus Tests 1-3): prolongs halothane-induced sleep at doses lower than those required to ihibit dopaminergic responses; ED50, inhibition of p-chloro amphetamine hyperactivity ([5]; Table I, female mice, 20 mg/kg pCA ip, activity 10-30 minutes post pCA): 0.3 mg/kg p.o.
OC1(c2ccccc2)CCN(CCc2c[nH]c3ccccc23)CC1 [Example 6, 1-(2-(Indol-3-yl)ethyl)-4-hydroxy-4-phenylpiperidine, reference compound] | – | – | – | – | > 50 | neither of the compounds of Examples 6 and 7 posses significant antagonist activity | > 50 | –
OC1(c2ccccc2)CCN(Cc2c[nH]c3ccccc23)CC1 [Example 2, 1-(Indol-3-ylmethyl)-4-hydroxy-4-phenylpiperidine] | – | – | – | – | – | both show activity | 32.6 | –
OC1(c2ccc(Cl)cc2)CCN(Cc2c[nH]c3ccccc23)CC1 [Example 1, 1-(Indol-3-ylmethyl)-4-hydroxy-4-(p-chlorophenyl)piperidine] | 20 | 200 | 25 | 50 | 25 | both show activity | 10 | A/B (ED50 Example 1 / ED50 Haloperidol), apomorphine induced climbing ([1]; ratio to haloperidol): 40; A/B (ED50 Example 1 / ED50 Haloperidol), halothane induced sleep time ([2]; Table I, ratio to haloperidol): 1000; selectivity ratio ([2]; mouse, in vivo, po, ratio of Test 4 dose to doses in Tests 1-3, read-out: dose prolonging halothane-induced sleep relative to doses required to inhibit dopaminergic responses): 8 to 20; sedative potential compared with haloperidol (in words) ([2]; versus haloperidol): lower than that of haloperidol; A/B (ED50 Example 1 / ED50 Haloperidol), amphetamine induced stereotypy ([3]; Table I, ratio to haloperidol): 36; dopamine antagonist potency compared with haloperidol (in words) ([6]; Tests 1, 2 and 3, versus haloperidol): less potent dopamine antagonist than haloperidol; relative potency of Examples 1 and 2 (in words) ([6]; results of Table 2, Example 1 versus Example 2): the more potent; A/B (ED50 Example 1 / ED50 Haloperidol), fall rate from revolving drum ([4]; Table I, ratio to haloperidol): 56; unwanted extrapyramidal effects compared with haloperidol (in words) ([4]; versus haloperidol): exhibits an advantage with regard to unwanted extrapyramidal effects; A/B (ED50 Example 1 / ED50 Haloperidol), p-chloro amphetamine hyperactivity ([5]; Table I, ratio to haloperidol): 33
OC1(c2ccc(Cl)cc2)CCN(CCc2c[nH]c3ccccc23)CC1 [Example 7, 1-(2-(Indol-3-yl)ethyl)-4-(p-chlorophenyl)-4-hydroxypiperidine, reference compound] | – | – | – | – | > 50 | neither of the compounds of Examples 6 and 7 posses significant antagonist activity | > 50 | –

From patent publication US4358456A, “Antipsychotic piperidinomethyl-indole derivatives” (John Wyeth & Brother Limited, priority 1980, dated 1982)
